{
  "source": "paper PMC9339071",
  "about": "“Toward in vivo proof of binding of ^18F-labeled inhibitor [^18F]TRACK to peripheral tropomyosin receptor kinases” (EJNMMI Research, 2022)",
  "biological_target": "T1, TrkA (tropomyosin 3-TrkA fusion protein, TPM3-NTRK1) (Homo sapiens, UniProt P04629)",
  "T1 construct": "tropomyosin 3-TrkA fusion protein (TPM3-NTRK1), endogenous in KM12 cells",
  "T1 sequence (P04629 405-796 limits assumed)": "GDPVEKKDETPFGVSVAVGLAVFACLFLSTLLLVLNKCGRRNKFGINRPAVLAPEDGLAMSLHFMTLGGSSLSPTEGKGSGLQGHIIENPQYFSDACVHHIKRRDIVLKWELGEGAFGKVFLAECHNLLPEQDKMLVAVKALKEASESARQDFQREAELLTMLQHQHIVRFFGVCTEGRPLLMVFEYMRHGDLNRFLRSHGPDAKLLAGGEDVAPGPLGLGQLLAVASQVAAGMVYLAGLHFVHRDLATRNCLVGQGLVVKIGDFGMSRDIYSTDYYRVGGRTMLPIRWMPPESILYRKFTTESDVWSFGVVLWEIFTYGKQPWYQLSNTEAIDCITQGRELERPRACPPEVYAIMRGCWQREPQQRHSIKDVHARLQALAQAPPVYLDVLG",
  "T1 sequence (P06753 2-285 partner)": "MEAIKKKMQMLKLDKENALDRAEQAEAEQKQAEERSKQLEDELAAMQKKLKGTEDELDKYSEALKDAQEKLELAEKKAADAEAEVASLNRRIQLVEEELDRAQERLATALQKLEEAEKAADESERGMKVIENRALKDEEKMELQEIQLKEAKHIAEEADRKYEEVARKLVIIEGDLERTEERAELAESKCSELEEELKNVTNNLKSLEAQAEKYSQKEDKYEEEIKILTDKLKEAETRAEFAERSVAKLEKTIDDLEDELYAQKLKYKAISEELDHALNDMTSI",
  "assay": "competition with [18F]TRACK radiotracer uptake in intact KM12 cells",
  "format": "cell-based",
  "data": [
    {"smiles": "O=C(Nc1ccc(F)c(F)c1)c1cnc2ccc(N3CCC[C@@H]3c3cccc(F)c3)nn12", "note": "[TRACK]", "values": [
      {"measurement": "IC50", "value": "29.4 ± 9.4", "unit": "nM"}
    ]}
  ]
}
